# Source: ChEMBL document CHEMBL4376881, “Toggling Preassembly with Single-Site Mutation Switches the Cytotoxic Mechanism of Cationic Amphipathic Peptides” (J Med Chem, 2020)
# Activity calls are given as the source filed them. The rule behind the calls is not given here.
# Tests used:
# HeLa [1] = assay: Cytotoxicity against human HeLa cells assessed as reduction in cell viability incubated for 1 hr by MTT assay; assay type: functional, cell-based
# HeLa [2] = assay: Induction of membrane lysis in human HeLa cells assessed as loss of membrane integrity at cytotoxic IC50 level incubated for 15 mins by Propidium iodide staining based confocal laser scanning microscopy relative to control; assay type: functional
# HeLa [3] = assay: Induction of membrane lysis in human HeLa cells assessed as increase in number of enlarged outward budding vesicles at cytotoxic IC50 level incubated for 15 mins by annexin V-FITC and by propidium iodide staining; assay type: functional, cell-based
# [4] = Drug localization in mitochondria of human HeLa cells using FITC-labeled compound at cytotoxic IC50 level incubated for 30 mins by Mito-tracker red dye based confocal laser scanning microscopy; settings: 0.5 h
# [5] = Drug localization in endoplasmic reticulum of human HeLa cells using FITC-labeled compound at cytotoxic IC50 level incubated for 30 mins by ER-tracker red dye based confocal laser scanning microscopy; assay type: subcellular; settings: 0.5 h
# HeLa [6] = assay: Induction of oxidative stress in human HeLa cells assessed as increase in reactive oxygen species at cytotoxic IC50 level incubated for 15 mins by CellROX deep red reagent based flow cytometry; assay type: functional, cell-based
# HeLa [7] = assay: Suppression of mitochondrial membrane potential in human HeLa cells at cytotoxic IC50 level incubated for 15 mins by rhodamine 123 dye based flow cytometry; assay type: functional, cell-based
# HeLa [8] = assay: Induction of apoptosis in human HeLa cells assessed as increase in caspase 3/7 activity at cytotoxic IC50 level using Ac-DEVD- pNA substrate incubated for 15 to 60 mins; assay type: functional, cell-based
# [9] = Drug localization in lysosome of human HeLa cells using FITC-labeled compound at cytotoxic IC50 level incubated for 30 mins by Lysotracker red dye based confocal laser scanning microscopy; assay type: subcellular; settings: 0.5 h
# [10] = Drug localization in nucleoli of human HeLa cells using FITC-labeled compound at cytotoxic IC50 level incubated for 30 mins by confocal laser scanning microscopy; assay type: subcellular; settings: 0.5 h
# HeLa [11] = assay: Cytotoxicity against human HeLa cells assessed as reduction in cell viability at 4 degC at 1 to 16 uM incubated for 1 hr by MTT assay; assay type: functional, cell-based
# [12] = Self aggregation up to 128 uM in PBS buffer by ANS fluorescent probe based aggregate incorporation assay; assay type: physicochemical
# [13] = Self aggregation assessed as formation of nano fibers of varying lengths at 32 uM by atomic force microscopy; assay type: physicochemical
# [14] = Induction of hemolysis in human erythrocytes assessed as hemoglobin release incubated for 2 hrs by UV absorbance based method; assay type: cell-based; settings: erythrocyte
# [15] = Selectivity index, ratio of HC10 for induction of hemolysis in human erythrocytes assessed as hemoglobin release incubated for 2 hrs by UV absorbance based method to IC50 for cytotoxicity against human HeLa cells assessed as reduction in cell viability incubated for 1 hr by MTT assay
# A549 = assay: Cytotoxicity against human A549 cells assessed as reduction in cell viability incubated for 1 hr by MTT assay; assay type: functional, cell-based; settings: A549, 1 h
# [16] = Selectivity index, ratio of HC10 for induction of hemolysis in human erythrocytes assessed as hemoglobin release incubated for 2 hrs by UV absorbance based method to IC50 for cytotoxicity against human A549 cells assessed as reduction in cell viability incubated for 1 hr by MTT assay
# MCF7 = assay: Cytotoxicity against human MCF7 cells assessed as reduction in cell viability incubated for 1 hr by MTT assay; assay type: functional, cell-based; settings: MCF7, 1 h
# [17] = Selectivity index, ratio of HC10 for induction of hemolysis in human erythrocytes assessed as hemoglobin release incubated for 2 hrs by UV absorbance based method to IC50 for cytotoxicity against human MCF7 cells assessed as reduction in cell viability incubated for 1 hr by MTT assay
# K562 = assay: Cytotoxicity against human K562 cells assessed as reduction in cell viability incubated for 1 hr by MTT assay; assay type: functional, cell-based; settings: K562, 1 h
# [18] = Selectivity index, ratio of HC10 for induction of hemolysis in human erythrocytes assessed as hemoglobin release incubated for 2 hrs by UV absorbance based method to IC50 for cytotoxicity against human K562 cells assessed as reduction in cell viability incubated for 1 hr by MTT assay
# HL-60 = assay: Cytotoxicity against human HL60 cells assessed as reduction in cell viability incubated for 1 hr by MTT assay; assay type: functional, cell-based; settings: HL-60, 1 h
# [19] = Selectivity index, ratio of HC10 for induction of hemolysis in human erythrocytes assessed as hemoglobin release incubated for 2 hrs by UV absorbance based method to IC50 for cytotoxicity against human HL60 cells assessed as reduction in cell viability incubated for 1 hr by MTT assay
# [20] = Drug localization in cell membrane of human HeLa cells using FITC-labeled compound at cytotoxic IC50 level incubated for 30 mins by confocal laser scanning microscopy; assay type: cell membranes; settings: 0.5 h
# [21] = Self aggregation at >8 uM in PBS buffer by ANS fluorescent probe based aggregate incorporation assay; assay type: physicochemical
# HeLa [22] = assay: Cytotoxicity against human HeLa cells assessed as reduction in cell viability at cytotoxic IC50 in presence of 1.5 to 150 ng/mL sodium heparin incubated for 1 hr by MTT assay; assay type: functional, cell-based
Substance,IC50 (HeLa [1]) [µM],Activity (HeLa [2]),Activity [12],HC10 [14] [µM],Selectivity Index [15],IC50 (A549) [µM],Selectivity Index [16],IC50 (MCF7) [µM],Selectivity Index [17],IC50 (K562) [nM],Selectivity Index [18],IC50 (HL-60) [nM],Selectivity Index [19],other results
H-KELKLLKKLLKLLK-OH,6.8,inactive,Not Active,61.7,9.13,13.5,4.58,14.5,4.25,2400,25.7,3300,18.7,Activity (HeLa [3]): inactive; Drug uptake [4]: Active; Drug uptake [5]: Active; Activity (HeLa [6]): Active; Activity (HeLa [7]): Active; Activity (HeLa [8]): Active; Drug uptake [9]: Active; Drug uptake [10]: Active; Activity (HeLa [11]): inactive; Activity [13]: Not Active
H-KKLKLLKKLLKLLK-OH,3.4,inactive,Not Active,19.5,5.74,3.5,5.53,6.2,3.14,1300,15,1700,11.5,–
H-KLEKLLKKLLKLLK-OH,6.1,inactive,Not Active,–,–,–,–,–,–,–,–,–,–,–
H-KLLELLKKLLKLLK-OH,5.3,Active,Active,–,–,–,–,–,–,–,–,–,–,–
H-KLLKELKKLLKLLK-OH,8.6,inactive,Not Active,–,–,–,–,–,–,–,–,–,–,–
H-KLLKLEKKLLKLLK-OH,> 64,–,Not Active,–,–,–,–,–,–,–,–,–,–,–
H-KLLKLLKKELKLLK-OH,> 64,–,Not Active,–,–,–,–,–,–,–,–,–,–,–
H-KLLKLLKKLEKLLK-OH,11.2,inactive,Not Active,–,–,–,–,–,–,–,–,–,–,–
H-KLLKLLKKLLKELK-OH,5.1,inactive,Not Active,–,–,–,–,–,–,–,–,–,–,–
H-KLLKLLKKLLKLEK-OH,21.8,inactive,Not Active,–,–,–,–,–,–,–,–,–,–,–
H-KLLKLLKKLLKLLK-OH,4.6,50%,–,0.52,0.11,3.7,0.14,4.3,0.12,1400,0.37,2500,0.21,Activity (HeLa [3]): Active; Drug uptake [20]: Active; Activity [21]: Dose-dependent effect; Activity [13]: Active; Activity (HeLa [22]): Active
H-KQLKLLKKLLKLLK-OH,5.2,inactive,Not Active,35.5,6.77,6.3,5.59,9,3.95,1800,19.7,2000,17.8,–
